Measured values published in PubChem BioAssay (NCI).
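Five concentrations, 48 hours, 96-well plates. Here, GI50 denotes the concentration required for 50% inhibition of growth. TGI: concentration producing complete growth inhibition.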

Key:
Experiment in all cases: growth of human tumour cells (NCI), 48 h
[1] = test system: HCC-2998 colon
[2] = test system: SF-268 CNS
[3] = test system: COLO 205 colon
[4] = test system: SR leukemia
[5] = test system: KM12 colon
[6] = test system: HL-60(TB) leukemia
[7] = test system: K-562 leukemia
[8] = test system: NCI/ADR-RES ovarian
[9] = test system: T-47D breast
[10] = test system: MCF7 breast

CCOC(=O)C1(C)CCC(C(C(=O)O)C(=O)O)CC1=O (configuration not stated)
TGI [1]: > 100 µM
TGI [2]: > 100 µM
TGI [3]: > 100 µM
TGI [4]: > 100 µM
TGI [5]: > 100 µM
TGI [6]: > 100 µM

CC1NOC(=O)C1N=Nc1ccc(Cl)cc1Cl (configuration not stated)
TGI [1]: 80.4 µM
TGI [2]: 81.7 µM
TGI [3]: 39 µM
TGI [4]: 71.9 µM
TGI [5]: 32.6 µM
TGI [6]: 44.8 µM
TGI [7]: 82.5 µM

CCCCCC/C=C\CCCCCCCCC(=O)c1cccc(OC)c1OC
TGI [8]: > 100 µM
TGI [1]: > 100 µM
TGI [2]: > 100 µM
TGI [3]: > 100 µM
TGI [9]: > 100 µM
TGI [4]: > 100 µM
TGI [5]: > 100 µM
TGI [6]: 69.9 µM
TGI [7]: > 100 µM

CN1CCN(c2c(F)cc(NC3=C(Cl)C(=O)c4ncccc4C3=O)cc2F)CC1
GI50 [8]: 17.9 µM
TGI [8]: 49.3 µM
GI50 [1]: 11.5 µM
TGI [1]: 26.1 µM
GI50 [10]: 2.04 µM
TGI [10]: 5.35 µM
GI50 [2]: 14.1 µM
TGI [2]: 28.3 µM
GI50 [3]: 2.14 µM
TGI [3]: 4.82 µM
GI50 [9]: 1.95 µM
TGI [9]: 5.04 µM
GI50 [5]: 16.5 µM
TGI [5]: 33 µM
GI50 [6]: 1.33 µM
TGI [6]: 4.99 µM
GI50 [7]: 0.494 µM
TGI [7]: > 100 µM

N#CC(C#N)=C/C=C(\Sc1ccc(Cl)cc1)c1ccc(F)cc1
GI50 [8]: 0.948 µM
TGI [8]: 4.94 µM
GI50 [1]: 2.87 µM
TGI [1]: 6.17 µM
GI50 [10]: 0.982 µM
TGI [10]: > 100 µM
GI50 [2]: 2.46 µM
TGI [2]: 18.8 µM
GI50 [3]: 4.11 µM
TGI [3]: > 38.5 µM
GI50 [9]: 13.3 µM
TGI [9]: > 71.6 µM
GI50 [4]: 0.171 µM
TGI [4]: > 100 µM
GI50 [5]: 0.87 µM
TGI [5]: 3.73 µM
GI50 [7]: 0.0844 µM
TGI [7]: > 100 µM

COc1cc(OC)c(OC)cc1/C=C/c1nc2ccccc2s1
TGI [8]: > 100 µM
TGI [1]: > 100 µM
TGI [10]: > 100 µM
TGI [2]: > 100 µM
TGI [3]: > 100 µM
TGI [9]: > 100 µM
TGI [5]: > 100 µM
TGI [6]: > 100 µM

C=C(CN1CCc2[nH]c3ccc(F)cc3c2C1)c1ccc(C(=O)Nc2ccccc2N)cc1
GI50 [8]: 0.621 µM
TGI [8]: 11.3 µM
GI50 [1]: 1.38 µM
TGI [1]: 3.82 µM
GI50 [10]: 2.45 µM
TGI [10]: 69.2 µM
GI50 [2]: 3.03 µM
TGI [2]: 8.36 µM
GI50 [3]: 2.37 µM
TGI [3]: 6.66 µM
GI50 [9]: 3.76 µM
TGI [9]: 87.8 µM
GI50 [4]: 0.795 µM
TGI [4]: 20.1 µM
GI50 [5]: 0.524 µM
TGI [5]: 2.94 µM
GI50 [7]: 1.06 µM
TGI [7]: 14.6 µM

O=C1C2C3C=CC(C2C(=O)N1CO)C1C2C(=O)N(CO)C(=O)C2C31 (configuration not stated)
TGI [1]: > 100 µM
TGI [2]: > 79 µM
TGI [3]: > 66.9 µM
TGI [4]: 45 µM
TGI [5]: > 100 µM
TGI [7]: > 82.5 µM

CC(C)Cc1ccc(C(C)/C=C2\CCC(CN(C)C)C2=O)cc1 (configuration not stated)
TGI [8]: 24.3 µM
TGI [1]: 31.3 µM
TGI [10]: 18 µM
TGI [2]: 25.5 µM
TGI [3]: 32.1 µM
TGI [4]: 9.41 µM
TGI [5]: 18.2 µM
TGI [6]: 26.7 µM
TGI [7]: 8.04 µM

NNC(=O)C(=O)NN=C(C(Cl)(Cl)CO)C(Cl)(Cl)CO
TGI [1]: > 100 µM
TGI [2]: > 100 µM
TGI [3]: > 100 µM
TGI [4]: 50.6 µM
TGI [5]: > 100 µM
TGI [6]: 69.6 µM
TGI [7]: > 100 µM

Cc1nc2ccccc2c(=O)n1/N=C(\N=Nc1ccccc1Cl)c1ccccc1Cl
TGI [2]: > 100 µM
TGI [3]: > 100 µM
TGI [6]: > 100 µM
TGI [7]: > 100 µM

COc1ccc(Nc2cnc3cc(N)cc(N)c3n2)cc1
GI50 [8]: 16.4 µM
TGI [8]: 35 µM
GI50 [10]: 18.4 µM
TGI [10]: 40.9 µM
GI50 [2]: 17.7 µM
TGI [2]: 39.8 µM
GI50 [3]: 30.5 µM
TGI [3]: > 100 µM
GI50 [9]: 27 µM
TGI [9]: 75.5 µM
GI50 [5]: 18.4 µM
TGI [5]: 36.2 µM
GI50 [6]: 5.49 µM
TGI [6]: 73.7 µM
GI50 [7]: 5.69 µM
TGI [7]: > 100 µM

CC(=O)Oc1c(C(=O)[O-])cc(C(C)C)cc1C(C)C.CC(=O)Oc1c(C(=O)[O-])cc(C(C)C)cc1C(C)C.CC(=O)Oc1c(C(=O)[O-])cc(C(C)C)cc1C(C)C.CC(=O)Oc1c(C(=O)[O-])cc(C(C)C)cc1C(C)C.[Cu+2].[Cu+2]
GI50 [10]: 21 µM
TGI [10]: 65.2 µM
GI50 [2]: 38.7 µM
TGI [2]: > 100 µM
GI50 [3]: 21 µM
TGI [3]: 42.5 µM
GI50 [9]: 52 µM
TGI [9]: > 100 µM
GI50 [5]: 19.1 µM
TGI [5]: > 100 µM
GI50 [6]: 22.7 µM
TGI [6]: 81.9 µM

O=NN(CCCl)C(=O)NC1CCC(CC(=O)O)CC1 (configuration not stated)
TGI [8]: > 100 µM
TGI [1]: > 100 µM
TGI [10]: > 100 µM
TGI [2]: > 100 µM
TGI [3]: > 100 µM
TGI [4]: > 100 µM
TGI [5]: > 100 µM
TGI [6]: > 100 µM
TGI [7]: > 100 µM

CCc1ccc(Nc2cc(C)c3ccc(O)cc3n2)cc1
GI50 [8]: 6.44 µM
TGI [8]: > 100 µM
GI50 [1]: 5.18 µM
TGI [1]: 17.4 µM
GI50 [10]: 4.75 µM
TGI [10]: 22.4 µM
GI50 [2]: 11.2 µM
TGI [2]: 30.3 µM
GI50 [3]: 10.4 µM
TGI [3]: 24.3 µM
GI50 [9]: 4.83 µM
TGI [9]: 23.3 µM
GI50 [5]: 6.01 µM
TGI [5]: 21.2 µM
GI50 [6]: 3.32 µM
TGI [6]: 12.5 µM
GI50 [7]: 3.2 µM
TGI [7]: 15.4 µM

CC12OC(=O)C(C#N)C1(C)C1C(=O)CCCC12 (configuration not stated)
TGI [2]: > 100 µM
TGI [3]: > 100 µM
TGI [5]: > 100 µM
TGI [6]: > 100 µM
TGI [7]: > 100 µM

Nc1nc(=S)c2c(ncn2CCO)[nH]1
TGI [1]: > 100 µM
TGI [2]: > 100 µM
TGI [3]: > 100 µM
TGI [5]: > 100 µM
TGI [6]: > 100 µM
TGI [7]: > 100 µM

ClCCOCCn1cnc2c(Cl)nc(Cl)nc21
GI50 [8]: 17.9 µM
TGI [8]: 41.4 µM
GI50 [1]: 1.42 µM
TGI [1]: 2.88 µM
GI50 [10]: 3.57 µM
TGI [10]: 21.4 µM
GI50 [2]: 6.82 µM
TGI [2]: 20.3 µM
GI50 [3]: 13.2 µM
TGI [3]: 27.5 µM
GI50 [9]: 14.2 µM
TGI [9]: 36.2 µM
GI50 [5]: 15.9 µM
TGI [5]: 29.6 µM
GI50 [6]: 4.08 µM
TGI [6]: > 100 µM
GI50 [7]: 15.9 µM
TGI [7]: > 100 µM

COc1ccc(/C=C2\CCC/C(=C\c3ccc(OC)c(OC)c3)C2=O)cc1OC
GI50 [8]: 1.18 µM
TGI [8]: 17.5 µM
GI50 [1]: > 32.5 µM
TGI [1]: > 32.5 µM
GI50 [10]: 1.19 µM
TGI [10]: > 32.5 µM
GI50 [2]: 4.28 µM
TGI [2]: > 32.5 µM
GI50 [3]: 1.46 µM
TGI [3]: > 32.5 µM
GI50 [9]: 10.2 µM
TGI [9]: > 32.5 µM
GI50 [5]: 1.02 µM
TGI [5]: > 32.5 µM
GI50 [6]: 2.25 µM
TGI [6]: > 32.5 µM
GI50 [7]: 2.28 µM
TGI [7]: > 32.5 µM
